In BindingDB's records for patent US11839613 (Idorsia Pharmaceuticals, 2023):
pIC50: −log10 of the molar value.

The compounds below were run against Prostaglandin E2 receptor EP2 subtype (Homo sapiens, UniProt P43116) (assay: hEP2 cAMP Assay).
Description: Cells are counted washed and resuspended in assay buffer (AB; HBSS, 20 mM HEPES, 0.2% BSA; 2 mM IBMX). […] Plate is pre-incubated 45 minutes at RT. […] Plate is incubated 30 minutes at RT.

Chain of Prostaglandin E2 receptor EP2 subtype (P43116 whole entry): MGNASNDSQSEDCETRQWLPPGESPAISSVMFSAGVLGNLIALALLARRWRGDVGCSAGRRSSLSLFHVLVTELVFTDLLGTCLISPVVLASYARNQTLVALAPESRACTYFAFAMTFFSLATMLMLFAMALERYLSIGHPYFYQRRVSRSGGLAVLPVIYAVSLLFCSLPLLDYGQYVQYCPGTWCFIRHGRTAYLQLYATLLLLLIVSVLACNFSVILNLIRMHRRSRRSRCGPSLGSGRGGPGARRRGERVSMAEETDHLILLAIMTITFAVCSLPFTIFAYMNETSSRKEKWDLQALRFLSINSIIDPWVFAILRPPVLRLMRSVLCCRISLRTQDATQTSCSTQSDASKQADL

Compound	pIC50
CCCc1cc(-c2cc(NCCc3cc4c(cc3OC)OCCO4)ncn2)ccc1C(C)C(=O)O (racemic) [US11839613, Example 401]	6.13
CCOc1cc(-c2cc(NCCc3c(OC)cc4ccccc4c3F)ncn2)ccc1C(=O)O [US11839613, Example 101]	6.99
CCOc1cc(-c2cc(NCCc3cc4ccccc4cc3NC)ncn2)ccc1OCC(=O)O [US11839613, Example 274]	5.93
CCOc1cc(-c2cc(NCCc3cc(F)c4sccc4c3)ncn2)ccc1C(=O)O [US11839613, Example 361]	6.57
CCOc1cc(-c2cc(NCCc3cc(F)c4sccc4c3)ncn2)ccc1CC(=O)O [US11839613, Example 363]	6.27
CSc1cc(-c2cc(NCCc3cc(F)c4sccc4c3)ncn2)ccc1C(=O)O [US11839613, Example 364]	7.43
CCOc1cc(-c2cc(NCCc3ccc4sccc4c3F)ncn2)ccc1C(=O)O [US11839613, Example 365]	7.54
O=C(O)c1ccc(-c2cc(NCCc3ccc4sccc4c3F)ncn2)cc1OC1CCC1 [US11839613, Example 366]	7.52
CCOc1cc(-c2cc(NCCc3ccc4sccc4c3F)ncn2)sc1C(=O)O [US11839613, Example 367]	8.22
CCOc1cc(-c2cc(NCCc3ccc4sccc4c3F)ncn2)ccc1CC(=O)O [US11839613, Example 368]	6.92
CCOc1cc(-c2cc(NCCc3ccc4sccc4c3)ncn2)cc(F)c1CC(=O)O [US11839613, Example 370]	6.51
CCOc1cc(-c2cc(NCCc3ccc4sccc4c3C)ncn2)cc(F)c1CC(=O)O [US11839613, Example 372]	6.95
CCOc1cc(-c2cc(NCCc3cc4c(cc3OC)OCCO4)ncn2)cc(F)c1CC(=O)O [US11839613, Example 373]	6.54
CCCc1cc(-c2cc(NCCc3cc4c(cc3OC)OCCO4)ncn2)ccc1CC(=O)O [US11839613, Example 387]	6.69
CCCc1cc(-c2cc(NCCc3c(OC)cc4c(c3C)OCCO4)ncn2)ccc1CC(=O)O [US11839613, Example 397]	7.60
COc1cc2c(cc1CCNc1cc(-c3ccc(CC(=O)O)c(CC(C)C)c3)ncn1)OCCO2 [US11839613, Example 411]	6.49
COc1cc2c(c(C)c1CCNc1cc(-c3ccc(CC(=O)O)c(OC(C)C)c3)ncn1)OCCO2 [US11839613, Example 426]	7.66
COc1cc2c(c(F)c1CCNc1cc(-c3ccc(CC(=O)O)c(OC(F)F)c3)ncn1)OCCO2 [US11839613, Example 442]	6.65
CCOc1cc2c(cc1CCNc1cc(-c3ccc(C(=O)O)c(OC4CC4)c3)ncn1)OCCO2 [US11839613, Example 447]	7.80

What follows are compounds tested against Prostaglandin E2 receptor EP4 subtype (Homo sapiens, UniProt P35408) (assay: hEP4 cAMP Assay).
Chain of Prostaglandin E2 receptor EP4 subtype (P35408 whole entry): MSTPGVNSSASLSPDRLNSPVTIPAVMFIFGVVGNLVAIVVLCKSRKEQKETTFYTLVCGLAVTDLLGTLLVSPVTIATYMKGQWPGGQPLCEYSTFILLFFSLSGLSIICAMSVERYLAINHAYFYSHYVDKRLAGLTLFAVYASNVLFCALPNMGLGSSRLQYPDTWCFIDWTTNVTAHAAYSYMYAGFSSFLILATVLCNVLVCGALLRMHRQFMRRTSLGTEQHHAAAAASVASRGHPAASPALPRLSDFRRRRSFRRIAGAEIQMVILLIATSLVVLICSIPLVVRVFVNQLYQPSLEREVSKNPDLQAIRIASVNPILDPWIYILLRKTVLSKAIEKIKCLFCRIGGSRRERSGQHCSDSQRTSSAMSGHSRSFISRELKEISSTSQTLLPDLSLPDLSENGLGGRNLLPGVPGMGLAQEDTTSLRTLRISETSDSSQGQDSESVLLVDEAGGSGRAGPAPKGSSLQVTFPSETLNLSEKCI
Description: Cells are counted washed and resuspended in assay buffer (AB; HBSS, 20 mM HEPES, 0.2% BSA; 2 mM IBMX). […] Plate is pre-incubated 45 minutes at RT. Subsequently, 2.5 microliters of PGE2 (final conc. 6 nM) are transferred into the assay plate. Plate is incubated 30 minutes at RT. […] For each compound concentration the percentage of cAMP compared to DMSO control value as average ±STDEV (each concentration is measured in duplicate) is calculated.

Compound	pIC50
CCCc1cc(-c2cc(NCCc3cc4c(cc3OC)OCCO4)ncn2)ccc1C(C)C(=O)O (racemic) [US11839613, Example 401]	6.63
CCCc1cc(-c2cc(NCCc3ccc4sccc4c3F)ncn2)ccc1C(C)C(=O)O (racemic) [US11839613, Example 482]	6.49
CCOc1cc(-c2cc(NCCc3c(OC)cc4ccccc4c3F)ncn2)ccc1C(=O)O [US11839613, Example 101]	7.46
CCOc1cc(-c2cc(NCCc3cc4ccccc4cc3NC)ncn2)ccc1OCC(=O)O [US11839613, Example 274]	6.34
CCOc1cc(-c2cc(NCCc3cc(F)c4sccc4c3)ncn2)ccc1C(=O)O [US11839613, Example 361]	7.17
CCOc1cc(-c2cc(NCCc3cc(F)c4sccc4c3)ncn2)sc1C(=O)O [US11839613, Example 362]	9.00
CCOc1cc(-c2cc(NCCc3cc(F)c4sccc4c3)ncn2)ccc1CC(=O)O [US11839613, Example 363]	7.46
CSc1cc(-c2cc(NCCc3cc(F)c4sccc4c3)ncn2)ccc1C(=O)O [US11839613, Example 364]	7.74
CCOc1cc(-c2cc(NCCc3ccc4sccc4c3F)ncn2)ccc1C(=O)O [US11839613, Example 365]	7.26
O=C(O)c1ccc(-c2cc(NCCc3ccc4sccc4c3F)ncn2)cc1OC1CCC1 [US11839613, Example 366]	7.33
CCOc1cc(-c2cc(NCCc3ccc4sccc4c3F)ncn2)sc1C(=O)O [US11839613, Example 367]	9.00
CCOc1cc(-c2cc(NCCc3ccc4sccc4c3F)ncn2)ccc1CC(=O)O [US11839613, Example 368]	7.43
CCOc1cc(-c2cc(NCCc3ccc4sccc4c3)ncn2)cc(F)c1CC(=O)O [US11839613, Example 370]	7.09
COc1cc2c(c(C)c1CCNc1cc(-c3ccc(C(=O)O)c(SC)c3)ncn1)OCCO2 [US11839613, Example 400]	7.43
CCOc1cc2c(cc1CCNc1cc(-c3ccc(CC(=O)O)c(OC(F)(F)F)c3)ncn1)OCCO2 [US11839613, Example 427]	6.72
COc1cc2c(c(C)c1CCNc1cc(-c3ccc(CC(=O)O)c(OC(F)(F)F)c3)ncn1)OCCO2 [US11839613, Example 428]	7.30
COc1cc(-c2cc(NCCc3c(OC)cc4c(c3C)OCCO4)ncn2)ccc1CC(=O)O [US11839613, Example 434]	7.02
COc1cc(-c2cc(NCCc3cc(F)c4sccc4c3)ncn2)ccc1CC(=O)O [US11839613, Example 475]	6.94
